Reference: US12344623B2, “Thiazolopyridine derivatives as adenosine receptor antagonists” (Merck Patent GmbH, priority 2019, dated 2025)

Key:
Assay type in all cases: cell-based
human A2B receptor = biological target: T1, human A2B receptor (Homo sapiens, UniProt P29275); experiment: Functional A2B receptor activity, recombinant HEK293 cells, cAMP (HTRF), agonist NECA; conditions: read-out: Functional A2B receptor activity, HEK293, cAMP, IC50
T1 construct: expressed in transfected cells; host or cells: HEK293
T1 sequence (P29275 1-332): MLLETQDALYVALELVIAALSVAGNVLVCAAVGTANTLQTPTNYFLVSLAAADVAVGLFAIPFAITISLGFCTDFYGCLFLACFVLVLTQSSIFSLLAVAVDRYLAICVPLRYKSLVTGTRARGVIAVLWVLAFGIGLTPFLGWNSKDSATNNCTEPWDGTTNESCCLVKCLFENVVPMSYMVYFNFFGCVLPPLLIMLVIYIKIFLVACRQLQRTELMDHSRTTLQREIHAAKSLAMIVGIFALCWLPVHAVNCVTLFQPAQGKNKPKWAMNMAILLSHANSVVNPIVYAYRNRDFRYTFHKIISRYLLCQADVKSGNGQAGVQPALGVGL
In short: (§1)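 Cellular cAMP measured by HTRF after 30 min incubation of cells with forskolin, test compounds and agonist. Data normalized to inhibitor control and DMSO neutral control, then curve-fitted.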

human A1 receptor = biological target: T2, human A1 receptor (Homo sapiens, UniProt P30542); experiment: Functional A1 receptor activity, recombinant CHO cells, cAMP (HTRF), forskolin, agonist CPA; conditions: recombinant CHO cells, forskolin, agonist CPA; read-out: Functional A1 receptor activity, CHO, cAMP, IC50
T2 construct: expressed in transfected cells; host or cells: CHO
T2 sequence (P30542 1-326): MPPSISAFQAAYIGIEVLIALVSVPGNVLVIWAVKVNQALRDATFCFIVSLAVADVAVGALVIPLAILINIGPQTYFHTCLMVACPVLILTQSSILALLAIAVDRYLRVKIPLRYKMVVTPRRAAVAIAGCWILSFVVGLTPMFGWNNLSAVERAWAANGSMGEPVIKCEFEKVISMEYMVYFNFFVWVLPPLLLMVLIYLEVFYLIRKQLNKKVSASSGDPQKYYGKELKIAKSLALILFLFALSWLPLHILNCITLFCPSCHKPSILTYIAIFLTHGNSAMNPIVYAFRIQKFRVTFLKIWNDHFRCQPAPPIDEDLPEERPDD
In short: (§2)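 Recombinant CHO cells expressing A1 or A3 receptor (Gi-coupled) were stimulated with forskolin together with test compound and agonist (CPA for A1, IB-MECA for A3), incubated 30 min, then cellular cAMP was read by HTRF. Data were normalized to inhibitor control and DMSO neutral control, then curve-fitted.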

human A3 receptor = biological target: T3, human A3 receptor (Homo sapiens, UniProt P0DMS8); experiment: Functional A3 receptor activity, recombinant CHO cells, cAMP (HTRF), forskolin, agonist IB-MECA; conditions: recombinant CHO cells, forskolin, agonist IB-MECA; read-out: Functional A3 receptor activity, CHO, cAMP, IC50
T3 construct: expressed in transfected cells; host or cells: CHO
T3 sequence (P0DMS8 1-318): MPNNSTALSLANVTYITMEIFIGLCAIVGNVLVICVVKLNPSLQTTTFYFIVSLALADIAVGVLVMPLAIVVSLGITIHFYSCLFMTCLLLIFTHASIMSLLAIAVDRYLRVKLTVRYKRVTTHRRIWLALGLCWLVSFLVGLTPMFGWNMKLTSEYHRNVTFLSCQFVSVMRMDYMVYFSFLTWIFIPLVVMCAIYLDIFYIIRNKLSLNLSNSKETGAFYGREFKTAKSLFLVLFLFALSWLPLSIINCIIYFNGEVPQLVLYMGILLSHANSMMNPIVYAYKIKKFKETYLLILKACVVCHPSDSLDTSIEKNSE
In short: as §2

mouse Pan T cells [1] = experiment: mTcell assay, IL-2, rescue of cytokine secretion, agonist NECA; conditions: 24 h
Description: (§3) Adenosine (Ado) in tumor microenvironment can inhibit T cell activity by signaling through A2A receptors and suppress cytokine secretion by T cells. […] Potential A2A antagonists or A2A/A2B dual antagonists can rescue T cells from this inhibition. Herein, we describe the in vitro system we established using Pan T cells from mouse spleens to screen potential A2A antagonists or A2A/A2B dual antagonists for their activity. The method described involves the use of CD3/CD28 pre-coated beads to stimulate Pan T cells purified from mouse splenocytes, combined with the addition of A2A agonist along with potential A2A or A2A/A2B dual antagonists to evaluate potentiation of T cell cytokine production.
Briefly, mouse Pan T cells are purified from spleens of BALB/c mice using Pan T cell isolation kit Mouse II (MACS Miltenyi biotech Cat # Order no. 130-095-130) according to manufacturer's protocol. The purified T cells are seeded in Nunc™ 96-Well Polystyrene Round Bottom Microwell Plates in RPMI medium with 10% heat inactivated fetal bovine serum. The cells are rested at 37° C. for 1 h before activating with CD3/CD28 pre-coated beads (Dynabeads™ Mouse T-Activator CD3/CD28; Cat #11456D). After 30 min the cells are treated with varying doses of test antagonist(s). […] After 24 h incubation IL-2 levels in the supernatants are measured by ELISAs according to manufacturer's protocol (R&D systems Cat #DY402 (IL-2)). Once the concentrations are calculated, the difference of cytokine concentration of DMSO control and agonist alone control is calculated and the percentage of rescue by each concentration of antagonist is calculated by using Microsoft Excel. These percentages of cytokine rescue in a dose dependent manner of antagonist is plotted in GraphPad Prism software and IC50 is calculated.

human A2A receptor [2] = biological target: T4, human A2A receptor (Homo sapiens, UniProt P29274); experiment: Human T cells, endogenous A2A receptor, cAMP, agonist NECA; conditions: read-out: hTcell data, cAMP, IC50
In short: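 Pan T cells isolated from fresh human blood PBMC, endogenously expressing Gs-coupled A2A, treated with compounds. Cellular cAMP measured by HTRF after 1 h; data normalized to inhibitor control and DMSO neutral control, then curve-fitted.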

human A2A receptor [3] = biological target: T4, human A2A receptor; experiment: Functional A2A receptor activity, recombinant HEK293 cells, cAMP (HTRF), agonist NECA; design: expressed in transfected cells; host or cells: HEK293; conditions: read-out: Functional A2A receptor activity, HEK293, cAMP, IC50
In short: as §1

mouse Pan T cells [4] = experiment: mTcell assay, cAMP, agonist NECA
Description: as §3
Pan T-cells are isolated from black 6 mice by manual dissociation and purified using a Miltenyi Pan T-cell isolation kit. The isolated T-cells are activated in 96 well plates for 48 hours using anti-CD3/CD28 beads in T-cell proliferation media.
After 48 hours, the T-cells are pooled, counted and suspended in serum free media containing 0.1% BSA. The cells are plated at 50,000 cells per well in 10 ul of media and incubated for 2 hours at 37° C. Test compounds are dispensed into the wells at a 10-point dose response, starting at a concentration of 10 uM. […] The plates are incubated for 30 minutes at 37° C. and assayed for cAMP levels using the Cisbio cAMP Dynamic2 reagent kit by adding 10 ul of the kit reagents to each well. The plates are incubated for 1 hour at room temperature and the HTRF signal is read on an Envision plate reader. The raw data is analyzed in Genedata Screener and the resulting data is loaded into the database.

human T cells = experiment: hTcell data, IL-2 (human T cells, IL-2 readout; method not given); conditions: compounds of the present invention

T4 sequence (P29274 whole entry): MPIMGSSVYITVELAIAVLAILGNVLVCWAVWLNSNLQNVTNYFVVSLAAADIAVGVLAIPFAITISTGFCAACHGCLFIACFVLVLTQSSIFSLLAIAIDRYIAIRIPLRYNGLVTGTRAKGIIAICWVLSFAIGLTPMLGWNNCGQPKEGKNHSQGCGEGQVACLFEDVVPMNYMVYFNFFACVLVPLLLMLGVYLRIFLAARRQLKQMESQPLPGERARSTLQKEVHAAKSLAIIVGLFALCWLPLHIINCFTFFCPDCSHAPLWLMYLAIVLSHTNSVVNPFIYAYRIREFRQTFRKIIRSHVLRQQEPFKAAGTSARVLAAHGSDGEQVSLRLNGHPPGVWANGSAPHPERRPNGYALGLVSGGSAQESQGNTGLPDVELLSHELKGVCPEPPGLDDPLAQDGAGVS

| IC50 (human A2B receptor) [nM] | IC50 (human A1 receptor) [nM] | IC50 (human A3 receptor) [nM] | IC50 (mouse Pan T cells [1]; Mus musculus, T-cell) [nM] | IC50 (human A2A receptor [2]) [nM] | IC50 (human A2A receptor [3]) [nM] | IC50 (mouse Pan T cells [4]; Mus musculus, T-cell) [nM] | IC50 (mouse Pan T cells [1]; mouse Pan T cells, CD3/CD28 activated, NECA 1 μM, IL-2 rescue) [nM] | IC50 (human T cells) [nM] | IC50 (human T cells; T-cell) [nM] | IC50 (mouse Pan T cells [4]; mouse Pan T cells, agonist NECA 1 uM) [nM] | SMILES |
| --- | --- | --- | --- | --- | --- | --- | --- | --- | --- | --- | --- |
| < 10 | < 1000 | > 1000 | < 100 | < 10 | < 10 |  |  |  |  |  | COc1ncc(C2=CCOCC2)c2sc(NC(=O)c3ccc(C(=O)N(C)C)cc3)nc12 [Compound 61, N4-[7-(3,6-dihydro-2H-pyran-4-yl)-4-methoxy-[1,3]thiazolo[4,5-c]pyridin-2-yl]-N1,N1-dimethylbenzene-1,4-dicarboxamide] |
| < 10 | > 1000 | > 1000 | < 100 | < 10 | < 10 | < 10 |  |  |  |  | COc1nc(F)c(C2CCOCC2)c2sc(NC(=O)N3CC[C@]4(CCOC4)C3)nc12 [Compound 38, (5S)-N-[6-fluoro-4-methoxy-7-(oxan-4-yl)-[1,3]thiazolo[4,5-c]pyridin-2-yl]-2-oxa-7-azaspiro[4.4]nonane-7-carboxamide] |
| < 10 | > 1000 | > 1000 |  |  | < 10 |  | < 100 | < 10 |  |  | COc1ncc(C2=CCOCC2)c2sc(NC(=O)N3CCC4(CCCOC4)C3)nc12 (stereo not drawn) [Compound 15, 7-Oxa-2-aza-spiro[4.5]decane-2-carboxylic acid [7-(3,6-dihydro-2H-pyran-4-yl)-4-methoxy-thiazolo[4,5-c]pyridin-2-yl]-amide] |
| < 10 | > 1000 | < 1000 |  | < 100 | < 10 | < 100 |  |  | < 10 |  | COc1nc(F)c(N2CCOCC2)c2sc(NC(=O)c3ccc(-c4nnn[nH]4)cc3)nc12 [Compound 6, N-(6-Fluoro-4-methoxy-7-morpholin-4-yl-thiazolo[4,5-c]pyridin-2-yl)-4-(1H-tetrazol-5-yl)-benzamide] |
| < 10 | > 1000 | > 1000 | < 100 | < 10 | < 10 | < 100 |  |  |  |  | COc1ncc(-c2cccs2)c2sc(NC(=O)N3CCC4(CCOCC4)C3)nc12 [Compound 47, 8-Oxa-2-aza-spiro[4.5]decane-2-carboxylic acid (4-methoxy-7-thiophen-2-yl-thiazolo[4,5-c]pyridin-2-yl)-amide] |
| < 10 | > 1000 | > 1000 | < 100 | < 10 | < 10 | < 10 |  |  |  |  | COc1cccc(-c2cnc(OC)c3nc(NC(=O)N4CCC5(CCOCC5)C4)sc23)c1 [Compound 54, 8-Oxa-2-aza-spiro[4.5]decane-2-carboxylic acid [4-methoxy-7-(3-methoxy-phenyl)-thiazolo[4,5-c]pyridin-2-yl]-amide] |
| < 10 | > 1000 | > 1000 | < 100 | < 10 | < 10 |  |  |  | < 10 |  | COc1nc(F)c(N2CCOCC2)c2sc(NC(=O)N3CC[C@@]4(CCCOC4)C3)nc12 [Compound 11, (5S)-N-[6-fluoro-4-methoxy-7-(morpholin-4-yl)-[1,3]thiazolo[4,5-c]pyridin-2-yl]-7-oxa-2-azaspiro[4.5]decane-2-carboxamide] |
| < 100 | < 1000 | > 1000 |  | < 10 | < 10 |  |  | < 10 |  | < 100 | COc1ncc(C2=CCOCC2)c2sc(NC(=O)N3CC[C@]4(CCCOC4)C3)nc12 [Compound 24, (R)-7-Oxa-2-aza-spiro[4.5]decane-2-carboxylic acid [7-(3,6-dihydro-2H-pyran-4-yl)-4-methoxy-thiazolo[4,5-c]pyridin-2-yl]-amide] |
| < 100 | > 1000 | > 1000 |  | < 10 | < 10 | < 10 |  |  |  |  | COc1nc(F)c(N2CCOCC2)c2sc(NC(=O)N3CC[C@]4(CCCOC4)C3)nc12 [Compound 10, (R)-7-Oxa-2-aza-spiro[4.5]decane-2-carboxylic acid (6-fluoro-4-methoxy-7-morpholin-4-yl-thiazolo[4,5-c]pyridin-2-yl)-amide] |
